Entries after “also recorded” stand apart in the source; their conditions may differ. Residues, ends and D or L forms follow the SMILES beside them.
Legend:
cells = details: cited from earlier work
cancer cells [1] = details: expression or introduction of CT20p in cancer cells; cited from earlier work
[2] = test system: PSMA-expressing PCa cells; assay: Effects of CT20p upon cell adhesion and anoikis; format: cell-based
Procedure: An essential activity that promotes the invasiveness of metastatic cells is rearrangement of the cytoskeleton, which can be linked to integrin signaling. […] At selected time points, PCa cells (Table 1) as well as control cells were treated with Mitotracker Red to visualize mitochondria and then were fixed on coverslips for staining with Alexa Fluor™ 647 phalloidin, a high-affinity F-actin probe, or Deoxyribonuclease I, Alexa Fluor™ 488-conjugate for G-actin for imaging by confocal microscopy (Zeiss 710). To examine how integrin signaling was impaired by CT20p, the surface expression of integrins detected with fluorescence-conjugated antibodies (β1, CD29 and αVβ3, CD51/61) by flow cytometry, was examined. Levels of additional integrins (αV or α5) were also evaluated by immunoblotting cell lysates. To determine whether cell detachment and the reduction in integrin levels could activate anoikis, the CytoSelect® 96-well Anoikis Assay Kit was used and standard assays of cell migration and invasion were performed. Additionally, to test the effects of CT20p under conditions of directed migration, the cells described above were treated with conditioned media from 3T3 cells, which contains chemotactic factors.

cancer cells [3] = assay: CT20p activities in cancer cells (timeline); format: cell-based
Procedure: FIGS. 18A-18J illustrate a timeline of CT20p activities in cancer cells. […] Gates are N, necrotic; V, viable; A, apoptotic. Percentages are V (black) and N+A (red). FIG. 18E is a graph showing that by 6 hours, cells detach from the substrate (fibronectin). Such cell detachment was measured using a crystal violet adhesion assay.
(§1) Recently, a mitotoxic peptide that kills cancer cells was discovered. […] Cell death (anoikis), indicated by membrane asymmetry, was detectable in cancer cells by 48 hours (FIG. 18J). […] These findings indicate that CT20p impairs cancer cell invasiveness through its actions on mitochondria and the cytoskeleton, which causes detachment-induced cell death.

normal cells = assay: CT20p in normal cells / control epithelial cell line; format: cell-based
Procedure: as §1

PSMA(+) PC3 tumors = details: two week experiment (FIG. 22D)
Procedure: FIG. 22A depicts an image of mice that were injected subcutaneously (SC) with PSMA(+) (right flank) or PSMA(−) (left flank) PCa tumor cells. Upon tumor detection (˜2 weeks), the mice were injected intravenously (IV) with PEG-(FOL)-HBPE-NPs (2 mg/kg/dose) containing a near IR dye (FIG. 22A) or CT20p (FIG. 22B). Mice were imaged after 24 hours (FIG. 22A) or sacrificed after 10 days (FIG. 22B). […] FIG. 22D is a graph that summarizes a two week experiment in which mice (n=5) bearing PSMA+ tumors (SC) were IV injected once per week with FOL-HBPE-NPs (2 mg/kg/dose) that were empty or had CT20p and were compared to COOH-NPs (untargeted) with CT20p or FOL-targeted doxorubicin (DOX). *p<0.05. The mice were euthanized before the tumors ulcerated.

[4] = test system: PCa primary tumors and metastatic lesions
Procedure: Results were compared with those obtained with free doxorubicin or folate-ss-doxorubicin. Again, the lead HBPE-NP preparations from Experiment 2 were used. Male SCID mice were used that are either intact or castrated and treated with testosterone (SC) or DHT pellet. SCID mice were injected SC with luciferase expressing LNCaP cells and, upon tumor growth, D-luciferin was injected prior to imaging (IVIS, Perkin Elmer). In all experiments, NPs without targeting ligand or without CT20p were used as controls. Mice were injected once every week, for 3-4 weeks, with control DFO-HBPE-NPs or PSMA-targeted DFO-HBPE(CT20p)-NPs. Tumor growth was monitored by measuring the tumor size using a caliper or by ultrasound as well as by bio-luminescence as described above. In addition, blood was collected for weekly PSA measurements (with a commercially available ELISA), using the value prior to therapy as a baseline. The tumors were followed for 6 weeks or until reaching 1.5 cm in size (whichever came first). At experimental endpoints, remaining tumor tissue, as well as liver, spleen, kidney, lungs and brain, were collected and examined by immunohistochemistry (using J591 to identify PSMA) and also qRT-PCR and quantitative Western Blot for PSMA levels in the tumor to correlates with response to the targeted therapy. […]

macrophages (RAW cells) = assay: Cell death of non-transformed cells (Sytox analysis); format: cell-based
Procedure: FIGS. 21A-21J show dose- (FIGS. 21A, 21C) and time- (FIGS. 21D, 21F) dependent cytotoxicity assay of PCa cells treated with Folate.HBPE(Dil)-NPs. PCa Cells: LNCap (FIGS. 21A, 21D), PSMA(+) PC3 (FIGS. 21B, 21E) and PC3 (FIGS. 21C, 21F). […] V, viable; N, necrotic, A, apoptotic.
To study any effect that folate-HBPE (CT20p)-NPs may have on non-transformed cells, macrophages (RAW cells) were incubated with the folate-HBPE(CT20p)-NPs and cell death was assessed.

[5] = test system: PSMA positive LNCaP cells; details: LNCaP cell viability
Description: The amount of encapsulated abiraterone was estimated following a reported protocol and defined as encapsulation efficiency.

[6] = by 24 hours post-CT20p treatment

In the case of CC[C@H](C)[C@H](NC(=O)[C@@H](NC(=O)[C@H](CC(C)C)NC(=O)[C@H](CO)NC(=O)[C@H](C)NC(=O)[C@@H](NC(=O)[C@H](CC(C)C)NC(=O)[C@@H](NC(=O)CNC(=O)[C@H](C)NC(=O)[C@@H](NC(=O)[C@H](Cc1ccccc1)NC(=O)[C@@H](NC(=O)[C@@H](NC(=O)[C@@H](NC(C)=O)C(C)C)[C@@H](C)O)[C@@H](C)CC)C(C)C)C(C)C)[C@@H](C)O)[C@@H](C)O)C(=O)N[C@@H](Cc1c[nH]c2ccccc12)C(=O)N[C@@H](CCCCN)C(=O)N[C@@H](CCCCN)C(=O)N[C@@H](CCSC)C(=O)NCC(N)=O [CT20p] (Ac-VTIFVAGVLTASLTIWKKMG-NH2), the uptake by cells (cells) is given as “not taken up by cells”, the “block of cell death by Bcl-2 overexpression, Bax deficiency or caspase inhibition” value (cancer cells [1]) is given as “minimally blocked it” and the “F-actin and integrin signaling” value [2] is given as “loss of F-actin and reduced integrin signaling”. For the same compound, the “concentration range in which the peptide works” value (cancer cells [3]) was “nanomolar range”, the ROS production (cancer cells [3]; [6]) was “increased ROS production” and the autophagy (cancer cells [3]; [6]) was “induction of autophagy”. The caspases (cancer cells [3]; [6]) was “activation of caspases”, the mitochondrial membrane effect (cancer cells [3]; cancer cells) was “hyperpolarization of the mitochondrial membrane and fusion-like aggregation; also recorded: mitochondrial membranes hyperpolarize and fuse” and the “β1 integrin surface level” value (cancer cells [3]; prior to cell detachment) was “decreased surface expression of β1 integrin; also recorded: membrane levels of β1 integrin decreased”. The “co-localization of peptide with mitochondria” value (cancer cells [3]; ˜3.4 nM CT20p in NPs, cancer cells) was “co-localization of the peptide (red) with mitochondria (green) was detected”, the “mitochondrial localization, autophagosome formation or cell death” value (normal cells; control epithelial cell line) was “not observed” and the cell death (normal cells; normal cells (FIG. 19C)) was “minimal cell death was detected”. For the same compound, the “efficacy in PSMA+ tumors” value (PSMA(+) PC3 tumors) was “more effective than drugs like Doxoyrubucin”.

In the case of COc1cccc2c1C(=O)c1c(O)c3c(c(O)c1C2=O)C[C@@](O)(C(=O)CO)C[C@@H]3O[C@H]1C[C@H](N)[C@H](O)[C@H](C)O1 [Doxorubicin], the tumor regression ([4]; also castration and hormone signaling conditions) is reported as “Tumor regression also occurs”, the off-target toxicity ([4]; mouse, in vivo) is reported as “off-target toxicity was observed” and the toxicity to macrophages (macrophages (RAW cells)) is reported as “death of macrophages was observed”.

With C[C@]12CC[C@H](O)CC1=CC[C@@H]1[C@@H]2CC[C@]2(C)C(c3cccnc3)=CC[C@@H]12 [abiraterone] the IC50 [5] was 2550 nM.

— patent US10973925B2, “Methods and compositions for theranostic nanoparticles” (University of Central Florida Research Foundation, Inc., priority 2015, dated 2021)
